Laboratory results reported in publication PMC11831487, “Novel Naphthyridones Targeting Pannexin 1 for Colitis Management” (Advanced Science, 2024).

What was measured:
Pannexin 1 (PANX1) [1] = biological target: T1, Pannexin 1 (PANX1) (Homo sapiens, UniProt Q96RD7); assay: whole-cell voltage clamp in HEK293T cells (-50 mV); CETSA (Tagg […] to […] °C); format: cell-based; set-up: hPANX1(TEV)-EGFP cleaved by TEVp (currents); full-length hPANX1-FLAG (CETSA)
Pannexin 1 (PANX1) [2] = biological target: T1, Pannexin 1 (PANX1); assay: To-Pro-3 uptake in HEK293T cells at […]; format: cell-based; set-up: C-terminally truncated hPANX1-CT-EGFP; conditions: HEK-293T; read-out: Mean ± SEM ^a)

T1 sequence (Q96RD7 1-379 limits assumed): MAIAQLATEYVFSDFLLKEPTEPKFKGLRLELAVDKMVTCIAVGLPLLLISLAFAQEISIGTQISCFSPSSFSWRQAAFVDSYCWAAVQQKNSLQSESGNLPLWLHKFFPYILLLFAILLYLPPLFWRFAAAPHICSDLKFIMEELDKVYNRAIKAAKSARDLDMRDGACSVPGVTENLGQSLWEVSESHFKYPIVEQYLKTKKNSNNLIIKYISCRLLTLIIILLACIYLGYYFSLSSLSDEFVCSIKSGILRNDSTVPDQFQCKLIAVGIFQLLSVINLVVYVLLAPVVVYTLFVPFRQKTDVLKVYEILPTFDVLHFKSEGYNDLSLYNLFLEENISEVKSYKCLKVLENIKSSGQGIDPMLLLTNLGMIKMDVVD

Compound	IC50 (Pannexin 1 (PANX1) [1]) [nM]	inhibition at 20 µM (Pannexin 1 (PANX1) [2]) [%]
COc1ccc(Cn2cc(C(=O)O)c(=O)c3cc(F)c(N4CCN(C)CC4)nc32)c(OC)c1 [compound 12, lithium 1‐(2,4‐dimethoxybenzyl)−6‐fluoro‐7‐(4‐methylpiperazin‐1‐yl)−4‐oxo‐1,4‐dihydro‐1,8‐naphthyridine‐3‐carboxylate]	~730	
N[C@@H]1[C@H]2CN(c3nc4c(cc3F)c(=O)c(C(=O)O)cn4-c3ccc(F)cc3F)C[C@@H]12 [Trovan, trovafloxacin]		87.3 ± 1.3
